In PMC5011342, “A high throughput drug screening assay to identify compounds that promote oligodendrocyte differentiation using acutely dissociated and purified oligodendrocyte precursor cells” (BMC Research Notes, 2016):
Like-named read-outs stand apart in the source and are kept apart here.

Tests used:
expanded OPCs = assay: cells; details: for viability at 0.1 µM / viability at 1 µM / viability at 10 µM: Rattus norvegicus, 72 h
Outline: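 Expanded OPCs seeded at 10,000 cells/well in differentiation media, then exposed to NCC library compounds at 10, 1 and 0.1 µM (quadruplicate, 0.1% DMSO) for three days. Viability read as alamarBlue fluorescence (560/590 nm) after 4 h at 37 °C; tunicamycin 5 ng/ml served as toxicity control.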

[1] = tested on: acutely dissociated and purified rat OPCs; assay: Acute OL differentiation assay (MBP expression/cell, immunofluorescent image quantification); type: cell-based; details: sheet "All OLga data"
Outline: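 Oligodendrocyte precursor cells were enriched from P6-P7 Sprague–Dawley rat brains by immunopanning (RAN-2 and GalC depletion, O4 selection), plated at 5000 cells/well in serum-free, mitogen-free differentiation media on PDL/laminin 96-well view plates, centrifuged at 200×g, and pre-incubated 1–2 h before test compounds were added in quadruplicate. On DIV4, cells were fixed, stained for MBP and DAPI, imaged automatically, and MBP expression per cell was quantified.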

[2] = read-out: 0.1 µM (% DMSO), alamarBlue viability of expanded OPCs, compound at 0.1 µM, sheet All Tox data
[3] = read-out: 1 µM (% DMSO), alamarBlue viability of expanded OPCs, compound at 1 µM, sheet All Tox data
[4] = read-out: 10 µM (% DMSO), alamarBlue viability of expanded OPCs, compound at 10 µM, sheet All Tox data
[5] = Rattus norvegicus, 2 uM test compound, relative to quetiapine, read-out: OL differentiation, 2 uM (% Quet)
[6] = Rattus norvegicus, 10 uM test compound, relative to quetiapine, read-out: OL differentiation, 10 uM (% Quet)
[7] = alamarBlue viability of expanded OPCs, compound at 0.1 µM, relative to DMSO control
[8] = alamarBlue viability of expanded OPCs, compound at 1 µM, relative to DMSO control
[9] = alamarBlue viability of expanded OPCs, compound at 10 µM, relative to DMSO control
[10] = Rattus norvegicus, test compound at 2 uM, NCC library screen, relative to quetiapine, read-out: 2 uM (% Quet)
[11] = Rattus norvegicus, test compound at 10 uM, NCC library screen, relative to quetiapine, read-out: 10 uM (% Quet)
[12] = Rattus norvegicus, 0.4 uM test compound, relative to quetiapine, read-out: OL differentiation, 0.4 uM (% Quet)
[13] = read-out: 0.1 µM (% DMSO), alamarBlue viability, NCC library compound at 0.1 µM, sheet "All Tox data"
[14] = read-out: 1 µM (% DMSO), alamarBlue viability, NCC library compound at 1 µM, sheet "All Tox data"
[15] = read-out: 10 µM (% DMSO), alamarBlue viability, NCC library compound at 10 µM, sheet "All Tox data"
[16] = Rattus norvegicus, test compound at 2 uM, MBP expression relative to quetiapine, NCC library screen, read-out: 2 uM (% Quet)
[17] = Rattus norvegicus, test compound at 10 uM, MBP expression relative to quetiapine, NCC library screen, read-out: 10 uM (% Quet)
[18] = alamarBlue viability, NCC library compound at 0.1 µM, sheet "All Tox data"
[19] = alamarBlue viability, NCC library compound at 1 µM, sheet "All Tox data"
[20] = alamarBlue viability, NCC library compound at 10 µM, sheet "All Tox data"
[21] = test compound at 2 uM, NCC library screen, relative to quetiapine
[22] = test compound at 10 uM, NCC library screen, relative to quetiapine

`C[C@H]1[C@H](OC(=O)CCC(=O)O)O[C@@H]2O[C@@]3(C)CC[C@H]4[C@H](C)CC[C@@H]1[C@@]24OO3` [Artesunate] showed a viability at 0.1 µM (expanded OPCs; [2]) of 93.2%, a viability at 1 µM (expanded OPCs; [3]) of 101% and a viability at 10 µM (expanded OPCs; [4]) of 74%. For the same compound, the activation at 2 µM [1, 5] was -39.6% and the activation at 10 µM [1, 6] was -122%.
In the case of `CC(C)NCC(O)COc1ccc(CC(N)=O)cc1` (stereo not shown) [Atenolol], the “0.1 µM (% DMSO)” value (expanded OPCs; [7]) is reported as 90.5 % DMSO, the “1 µM (% DMSO)” value (expanded OPCs; [8]) is reported as 105.2 % DMSO and the “10 µM (% DMSO)” value (expanded OPCs; [9]) is reported as 146.2 % DMSO. The activation at 2 µM [1, 10] was 31.5% and the activation at 10 µM [1, 11] was 86.2%.
In the case of `CNCC[C@@H](Oc1ccccc1C)c1ccccc1` [Atomoxetine], the viability at 0.1 µM (expanded OPCs; [2]) is reported as 87.4%, the viability at 1 µM (expanded OPCs; [3]) is reported as 74.9% and the viability at 10 µM (expanded OPCs; [4]) is reported as 33.8%. It also gave an activation at 0.4 µM [1, 12] of -17.2% and an activation at 2 µM [1, 5] of -20.9%.
Compound `COc1ccc(CC2c3cc(OC)c(OC)cc3CC[N+]2(C)CCC(=O)OCCCCCOC(=O)CC[N+]2(C)CCc3cc(OC)c(OC)cc3C2Cc2ccc(OC)c(OC)c2)cc1OC` (stereo not shown) [Atracurium] has a viability at 0.1 µM (expanded OPCs; [13]) of 84.6%, a viability at 1 µM (expanded OPCs; [14]) of 75.3% and a viability at 10 µM (expanded OPCs; [15]) of 56.2%. The activation at 0.4 µM ([1]; Rattus norvegicus, test compound at 0.4 uM, NCC library screen, relative to quetiapine, read-out: 0.4 uM (% Quet)) was 9.5% and the activation at 2 µM [1, 10] was -83%.
In the case of `Nc1ncn([C@@H]2O[C@H](CO)[C@@H](O)[C@H]2O)c(=O)n1` [Azacitidine], the “0.1 µM (% DMSO)” value (expanded OPCs; [7]) is reported as 92.1 % DMSO, the “1 µM (% DMSO)” value (expanded OPCs; [8]) is reported as 66.4 % DMSO and the “10 µM (% DMSO)” value (expanded OPCs; [9]) is reported as 57.5 % DMSO. The activation at 2 µM [1, 16] was -59.1% and the activation at 10 µM [1, 17] was -131%.
With `CN1C(=O)COc2c(C(=O)NC3CN4CCC3CC4)cc(Cl)cc21` (stereo not shown) [Azasetron] the viability at 0.1 µM (expanded OPCs; [13]) was 94.2%, the viability at 1 µM (expanded OPCs; [14]) was 80.9% and the viability at 10 µM (expanded OPCs; [15]) was 76.8%. It also gave an activation at 2 µM [1, 5] of -8.9% and an activation at 10 µM [1, 6] of -16.8%.
In the case of `Cn1cnc([N+](=O)[O-])c1Sc1ncnc2nc[nH]c12` [Azathioprine], the “0.1 µM (% DMSO)” value (expanded OPCs; [7]) is reported as 90.4 % DMSO, the “1 µM (% DMSO)” value (expanded OPCs; [8]) is reported as 91.6 % DMSO and the “10 µM (% DMSO)” value (expanded OPCs; [9]) is reported as 63.6 % DMSO. It also gave an activation at 2 µM [1, 16] of -21.2% and an activation at 10 µM [1, 17] of -94.3%.
`O=c1cnn([C@@H]2O[C@H](CO)[C@@H](O)[C@H]2O)c(=O)[nH]1` [Azauridine] was tested, and the “0.1 µM (% DMSO)” value (expanded OPCs; [18]) was 94.5 % DMSO, the “1 µM (% DMSO)” value (expanded OPCs; [19]) was 93.6 % DMSO and the “10 µM (% DMSO)” value (expanded OPCs; [20]) was 80.3 % DMSO. For the same compound, the “2 uM (% Quet)” value [1, 21] was -8.7 % Quet and the “10 uM (% Quet)” value [1, 22] was -6.4 % Quet.
With `CN1CCCC(n2nc(Cc3ccc(Cl)cc3)c3ccccc3c2=O)CC1` (stereo not shown) [Azelastine] the viability at 0.1 µM (expanded OPCs; [2]) was 90.1%, the viability at 1 µM (expanded OPCs; [3]) was 51.5% and the viability at 10 µM (expanded OPCs; [4]) was 12%. For the same compound, the activation at 0.4 µM [1, 12] was 1% and the activation at 2 µM [1, 5] was -19%.
In the case of `CC[C@H]1OC(=O)[C@H](C)[C@@H](O[C@H]2C[C@@](C)(OC)[C@@H](O)[C@H](C)O2)[C@H](C)[C@@H](O[C@@H]2O[C@H](C)C[C@H](N(C)C)[C@H]2O)[C@](C)(O)C[C@@H](C)CN(C)[C@H](C)[C@@H](O)[C@]1(C)O` [Azithromycin], the “0.1 µM (% DMSO)” value (expanded OPCs; [7]) is reported as 76.1 % DMSO, the “1 µM (% DMSO)” value (expanded OPCs; [8]) is reported as 40.6 % DMSO and the “10 µM (% DMSO)” value (expanded OPCs; [9]) is reported as 25.1 % DMSO. The activation at 0.08 µM ([1]; Rattus norvegicus, test compound at 0.08 uM, MBP expression relative to quetiapine, NCC library screen, read-out: 0.08 uM (% Quet)) was 8.2% and the activation at 0.4 µM ([1]; Rattus norvegicus, test compound at 0.4 uM, MBP expression relative to quetiapine, NCC library screen, read-out: 0.4 uM (% Quet)) was -7.2%.
`CC1(C)O[C@@H]2C[C@H]3[C@@H]4CCC5=CC(=O)C=C[C@]5(C)[C@@]4(F)[C@@H](O)C[C@]3(C)[C@]2(C(=O)CO)O1` [Azmacort] was tested, and the “0.1 µM (% DMSO)” value (expanded OPCs; [7]) was 95.7 % DMSO, the “1 µM (% DMSO)” value (expanded OPCs; [8]) was 95.0 % DMSO and the “10 µM (% DMSO)” value (expanded OPCs; [9]) was 69.5 % DMSO. For the same compound, the activation at 2 µM [1, 16] was 24.2% and the activation at 10 µM [1, 17] was -114%.
In the case of `O=C(O)CCNC(=O)c1ccc(/N=N/c2ccc(O)c(C(=O)O)c2)cc1` [Balsalazide], the viability at 0.1 µM (expanded OPCs; [13]) is reported as 88.1%, the viability at 1 µM (expanded OPCs; [14]) is reported as 92% and the viability at 10 µM (expanded OPCs; [15]) is reported as 85.1%. For the same compound, the activation at 2 µM [1, 10] was 10.7% and the activation at 10 µM [1, 11] was 19.1%.
With `C[C@H]1C[C@H]2[C@@H]3CCC4=CC(=O)C=C[C@]4(C)[C@@]3(Cl)[C@@H](O)C[C@]2(C)[C@@]1(O)C(=O)CO` [Beclomethasone] the “0.1 µM (% DMSO)” value (expanded OPCs) was 90.7 % DMSO, the “1 µM (% DMSO)” value (expanded OPCs) was 90.4 % DMSO and the “10 µM (% DMSO)” value (expanded OPCs) was 81.7 % DMSO. For the same compound, the “0.1 µM (% DMSO)” value (expanded OPCs; [18]) was 110.9 % DMSO, the “1 µM (% DMSO)” value (expanded OPCs; [19]) was 114.8 % DMSO and the “10 µM (% DMSO)” value (expanded OPCs; [20]) was 117.6 % DMSO. The “2 uM (% Quet)” value ([1]; test compound at 2 uM, MBP expression relative to quetiapine, NCC library screen) was -121.4 % Quet, the “2 uM (% Quet)” value [1, 21] was -1.4 % Quet and the “10 uM (% Quet)” value ([1]; test compound at 10 uM, MBP expression relative to quetiapine, NCC library screen) was -191.3 % Quet. For the same compound, the “10 uM (% Quet)” value [1, 22] was -5.2 % Quet.
